The record followed here is US7976843B2, “Method for screening peptides for use in immunotherapy” (Institut National de la Santa et de la Recherche Medicale …, priority 2000, dated 2011).

This experiment relates to RMA-HHD cells infected with vac-HIVgag, vac-neu, vac-gp100 or flu PR8. Set-up: species or system HHD mice. To be noted: mouse, in vivo.

Turning to ILLVVVLGV [HER-2/neu 661], the “killing of RMA-HHD cells infected with virus expressing the antigen vs vac-WT” value is reported as “exception”.
As for PLTSIISAV [HER-2/neu 650], the “killing of RMA-HHD cells infected with virus expressing the antigen vs vac-WT” value is given as “kill target cells infected with vac-neu, but not targets infected with vac-WT”.
